# In PMC8557901 (Microbiology Spectrum, 2021):
# Tests used:
# [1] = tested on: P. falciparum liver-stage parasites in human primary hepatocytes; assay: In vitro liver-stage development, P. falciparum in human primary hepatocytes; type: cell-based, Plasmodium falciparum
# Source text: (§1) Primary human hepatocytes were isolated from liver segments obtained from adult patients undergoing partial hepatectomy (Service de Chirurgie Digestive, Hépato-Bilio Pancréatique, Hôpital Pitié Salpêtrière, Paris, France). Primary simian hepatocytes were isolated from liver segments collected from healthy Macaca fascicularis monkeys from CEA, Fontenay aux Roses, France. All hepatocytes were obtained using collagenase perfusion as previously described ([40]). […] Primary murine hepatocytes were isolated from liver segments collected from BALB/c mice. Human and murine hepatocytes were used directly after their isolation. Cells were seeded in 96-well plates (Falcon; Becton Dickinson Labware Europe, France) coated with collagen I (BD Bioscience, USA) at a density of 80,000 cells per well. […] For human hepatocytes, the complete medium was supplemented with 2% dimethyl sulfoxide (DMSO; Sigma-Aldrich, USA) before infection to preserve their differentiation.
# (§2) On the day of infection, 3 · 10^4 sporozoites of P. falciparum, P. yoelii, and P. cynomolgi were added to their respective host cell cultures (human, murine, and simian). The infected culture plates were centrifuged for 10 min at 900 × g, allowing fast parasite sedimentation, and further incubated with serial dilutions of M1. Culture medium containing the appropriate drug concentration was refreshed daily, and cells were fixed at 48 h postinfection (p.i.) for infections with P. yoelii, 6 days p.i. for P. falciparum, or 8 days p.i. for P. cynomolgi. For the in vitro sporozoite invasion experiments, P. falciparum sporozoites were preincubated with 1, 10, and 100 μM M1 for 1 h at room temperature before hepatocyte infections. Three hours later, after sporozoite penetration into hepatocytes, cultures were washed and then further incubated with or without the presence of the drug during 6 days. DMSO was used as a negative control.
# (§3) The number, size, and shape of the parasites were determined using a CellInsight high-content screening platform equipped with Studio HCS software (ThermoFisher Scientific). […] Host cell and parasite nuclei were labeled with DAPI (4′,6-diamidino-2-phenylindole). […] The custom script used for counting and measuring parasites first required identification of the objects based on a fluorescence intensity threshold. The object identity was then further validated based on size and morphological (shape) criteria. The presence of DAPI-associated fluorescence in the selected objects allowed their final selection and the rejection of false positives. […] The parasitic size reduction was calculated on the average object area using the total surface area of each selected object (μm^2).
# [2] = tested on: P. cynomolgi liver-stage parasites in simian primary hepatocytes; assay: In vitro liver-stage development, P. cynomolgi in simian primary hepatocytes; type: cell-based, Plasmodium cynomolgi
# Source text: as §1, §2, §3
# [3] = tested on: P. falciparum mature gametocytes (stage V); assay: Exflagellation-blocking assay; type: cell-based, Plasmodium falciparum; settings: 10 μM, 24 h preincubation of stage V gametocytes
# Procedure: Exflagellation-blocking assays were performed according to published protocols ([48], [49]). Assays were performed using gametocyte cultures providing high-enough numbers of exflagellation centers for meaningful measurement (>30 centers of exflagellation in 50 microscope fields at 400× magnification). […] The 6-well plate was incubated at 37°C. After treatment with M1 during 2 h or 24 h, exflagellation was induced by decreasing the temperature to 25°C and replacing culture medium with AB serum. The numbers of exflagellation centers were recorded between 10 and 30 min after induction and compared to the numbers in the control (DMSO treatment). Activity was expressed as the percentage of exflagellation inhibition compared to the control.
# [4] = tested on: P. yoelii (GFP-luc strain); assay: In vivo liver-stage assay in mice infected with P. yoelii sporozoites; parameters: species or system BALB/c mice
# Procedure: Five mice per treatment group were used. Experimental groups were treated with 50 and 100 mg/kg of M1 intraperitoneally (i.p.). Untreated infected mice and noninfected mice (infection controls), as well as primaquine-treated (50 mg/kg) mice (control drug), were also included. The drugs were administered on days −1, 0, and +1, and mice were challenged on day zero by retroorbital injection of P. yoelii (GFP-luc strain) sporozoites (10,000 per mouse). In vivo bioluminescence imaging was performed 44 h postinfection on day 2, to assess liver-stage development. When parasites were detected in the liver, treatment was continued until day 5 and in vivo imaging was performed on days 3 and 6, to evaluate a prepatent period for the blood-stage parasites in mice after the sporozoite inoculation. In vivo imaging and blood smears were performed to monitor blood-stage development using methods described previously ([45]). This experiment was performed twice.
# IVIS Spectrum (Caliper Life Science, Hanover, MD) was used to capture bioluminescence signals. Prior to analysis, the mice were injected i.p. with D-luciferin (100 mg/kg), anesthetized with isoflurane, and imaged 10 min postinjection. Images were analyzed using the Living Image 3.0 software (Caliper Life Sciences, Hanover, MD).
# In order to study the in vivo efficacy of M1 without any hepatic CYP metabolism, we conducted an experiment using 1-aminobenzotriazole (ABT), a nonselective inhibitor of cytochrome P450 enzymes ([34], [35]). ABT was administered to mice i.p. 1 h before each treatment with 50 mg/kg gamhepathiopine for 3 days starting from the day before sporozoite inoculation.
# [5] = tested on: P. yoelii in HepG2-CD81 cells; assay: Hepatic stage of P. yoelii in HepG2-CD81 cells; type: cell-based; settings: Plasmodium yoelii; hepatic schizonts
# Procedure: Hepatocytes were seeded into collagen-coated black 96-well plates and maintained at 37°C in 5% CO2 in complete medium. […] The infected culture plates were centrifuged for 10 min at 900 × g, allowing fast parasite sedimentation, and further incubated with serial dilutions of M1. […] DMSO was used as a negative control. The number, size, and shape of the parasites were determined using a CellInsight high-content screening platform equipped with Studio HCS software (ThermoFisher Scientific). The parasite immunostaining was done using an […]70 antibody raised in mice and a secondary anti-mouse antibody coupled to Alexa Fluor 488 ([43]). […] Thirty-seven images, representing more than 95% of the total bottom surface area of a culture well in 96-well plates, were captured for analysis. The custom script used for counting and measuring parasites first required identification of the objects based on a fluorescence intensity threshold. The object identity was then further validated based on size and morphological (shape) criteria. The presence of DAPI-associated fluorescence in the selected objects allowed their final selection and the rejection of false positives. […] The parasitic size reduction was calculated on the average object area using the total surface area of each selected object (μm^2).
structure (smiles),measurement,setting,value
"Cc1ccc(-c2cc3nc(NC(C)(C)C)[nH]c(=O)c3s2)cc1 [Metabolite M1, 2-(tert-Butylamino)-6-(p-tolyl)thieno[3,2-d]pyrimidin-4(3H)-one]",concentration from which liver-stage development was fully inhibited,[1]; P. falciparum in human hepatocytes,14 µM
same,EC50,"[1]; Plasmodium falciparum, Hepatocyte, P. falciparum in human primary hepatocytes (HH), mean ± SEM of triplicate experiments, read-out: EC50 against liver-stage parasites",450 ± 150 nM
same,SI (selectivity index),"[1]; hepatocyte CC50/EC50, P. falciparum (HH)",>133
same,Size reduction at 10 μM (%),"[1]; parasite (schizont) size, 10 μM, P. falciparum (HH)",80%
same,concentration from which liver-stage development was fully inhibited,[2]; P. cynomolgi in simian hepatocytes,14 µM
same,EC50,"[2]; Plasmodium cynomolgi, Hepatocyte, P. cynomolgi in simian primary hepatocytes (SH), mean ± SEM of triplicate experiments, read-out: EC50 against liver-stage parasites",1500 ± 300 nM
same,activity on P. cynomolgi hypnozoites,[2]; all tested concentrations (0.1 to 50 μM),not active
same,SI (selectivity index),"[2]; hepatocyte CC50/EC50, P. cynomolgi (SH)",>40
same,Size reduction at 10 μM (%),"[2]; parasite (schizont) size, 10 μM, P. cynomolgi (SH)",80%
same,mean percentage for male exflagellation,[3],7.5%
same,development of liver-stage parasites in vivo at day 2,"[4]; 50 mg/kg i.p., 44 h postinfection, bioluminescence",did not prevent the development of liver-stage parasites
same,blood-stage parasitemia after sporozoite infection,"[4]; 50 mg/kg, blood smears days 3 and 6",reduced the burden of blood-stage parasites
same,in vivo activity against the hepatic stages with ABT cotreatment,[4]; M1 50 mg/kg with 1-aminobenzotriazole 50 mg/kg i.p.,improved
same,EC50,[5],0.067 µM
